Experimental data reported in the OPERA property sets (Mansouri et al. 2018).

Settings: not given

SMILES | melting point [°C] | boiling point [°C] | log10 vapour pressure (mmHg) | ready biodegradability | log10 Koa | log10 Henry constant (atm·m³/mol) | log10 Koc (L/kg)
Nc1ccc(N=O)cc1 | 174 |  |  |  |  |  | 
N#CCCC#N | 54.5 | 266 | -2.11 |  |  |  | 
COc1cc(/C=C/C(=O)CC(=O)/C=C/c2ccc(O)c(OC)c2)ccc1O | 183 |  |  |  |  |  | 
COc1ccccc1N | 6.2 | 224 | -1.1 | readily biodegradable |  |  | 
CC(=O)N1C[C@H](O)C[C@H]1C(=O)O | 132 |  |  |  |  |  | 
CC[Si](O)(CC)CC |  | 154 |  |  |  |  | 
CCC(C)(O)C(C)C (centres undefined) |  | 140 |  |  |  |  | 
O=C(CCCN1CCC2(CC1)C(=O)NCN2c1ccccc1)c1ccc(F)cc1 | 142 |  |  |  |  |  | 
COc1ccc(N=[N+]([O-])c2ccc(OC)cc2)cc1 | 127 |  |  |  |  |  | 
C=Cc1c(C)cc(C)cc1C | -37 | 209 |  |  |  |  | 
COC1=C(O)C(=O)C(C)=C(O)C1=O | 202 |  |  |  |  |  | 
O=C(O)c1ccccc1Nc1ccccc1 | 184 |  |  |  |  |  | 
Cc1cnc(C(=O)O)c[n+]1[O-] | 178 |  |  |  |  |  | 
CCCCCCCCCCC=O | -4 |  |  |  |  |  | 
C/C=C(\C)C=O |  | 117 |  |  |  |  | 
CC(C)(C)OC(=O)C(Cl)(Cl)Cl | 25.5 |  |  |  |  |  | 
Cc1cn([C@H]2C[C@H](O)[C@@H](CO)O2)c(=O)[nH]c1=O | 186 |  |  |  |  |  | 
C1CC2CCC1C2 | 87.5 | 105 |  |  |  |  | 
CN(C)c1cccc(N)c1 |  | 270 |  |  |  |  | 
C=C(CC)CC | -132 | 64.7 | 2.24 |  |  |  | 
Nc1ccc(Cl)c(C(=O)O)c1 | 188 |  |  |  |  |  | 
CC(C)(C)CC(C)(C)N |  | 140 |  |  |  |  | 
COB(OC)OC | -31.6 | 68 | 2.13 |  |  |  | 
C=C(C)C(=O)C(=CC(=O)O)OC | 83 |  |  |  |  |  | 
N#Cc1ccc(Cl)cc1N | 161 |  |  |  |  |  | 
Clc1cc2c(c(Cl)c1Cl)Oc1cc(Cl)c(Cl)c(Cl)c1O2 | 285 |  | -10.4 |  | 11 |  | 
CC(c1ccccc1)C(C)(C)O (centres undefined) | 46 | 197 |  |  |  |  | 

SMILES | melting point [°C] | boiling point [°C] | log10 vapour pressure (mmHg) | ready biodegradability | log10 Koa | log10 Henry constant (atm·m³/mol) | log10 Koc (L/kg)
Cc1c2ccncc2c(C)c2c1[nH]c1ccccc12 | 313 |  |  |  |  |  | 
CN(C)c1ccc(-c2ccc(N(C)C)cc2)cc1 | 194 |  |  |  |  |  | 
CCP(c1ccccc1)c1ccccc1 |  | 293 |  |  |  |  | 
Cc1ccccc1N(CC1CO1)CC1CO1 (centres undefined) |  |  |  | not readily biodegradable |  |  | 
C[C@@H]1O[C@@H](O[C@H]2C[C@@H](O)[C@]3(CO)[C@H]4[C@H](O)C[C@]5(C)[C@@H](C6=CC(=O)OC6)CC[C@]5(O)[C@@H]4CC[C@]3(O)C2)[C@H](O)[C@H](O)[C@H]1O | 200 |  |  |  |  |  | 
Clc1cc2c(Cl)ccc(Cl)c2cc1Cl |  |  |  |  | 8.13 |  | 
COc1ccccc1OCC(O)COC(N)=O (centres undefined) | 93 |  |  | not readily biodegradable |  |  | 
COc1ccccc1CO |  | 249 |  |  |  |  | 
C=CC=O | -87.7 | 52.6 | 2.44 | not readily biodegradable |  | -3.91 | 
O=C(O)c1cc(-c2ccccc2)nc2ccccc12 | 214 |  |  |  |  |  | 
COc1cccc(F)c1 | -35 | 159 |  |  |  |  | 
COP(=S)(OC)Oc1ccc([N+](=O)[O-])c(C)c1 | 3.4 |  | -4.27 | readily biodegradable |  | -6.03 | 2.63
CCCCC[C@H](O)/C=C/[C@H]1[C@H](O)CC(=O)[C@@H]1C/C=C\CCCC(=O)O | 67 |  |  |  |  |  | 
C[N+](C)(C)CCOC(=O)CCC(=O)OCC[N+](C)(C)C.[I-].[I-] | 244 |  |  |  |  |  | 
CNN | -52.4 | 87.5 | 1.7 | not readily biodegradable |  |  | 
N#C/C=C/C#N | 96.8 | 186 |  |  |  |  | 
CC(F)(F)C(F)(F)F |  | -17.4 | 3.54 |  |  |  | 
CC(CCc1ccccc1)NC(C)C(O)c1cc(I)c(O)c(I)c1 (centres undefined) | 212 |  |  |  |  |  | 
O=S(=O)(O)c1ccc2ccc(S(=O)(=O)O)cc2c1 | 199 |  |  |  |  |  | 
CCc1c(C)cccc1C | -16.2 | 190 | -0.132 |  |  |  | 
CC(C)SSC(C)C | -69 | 177 |  |  |  |  | 
CCCCCCCCCCCCCCCCCCOC(=O)CCSCCC(=O)OCCCCCCCCCCCCCCCCCC | 66 |  |  | readily biodegradable |  |  | 
CC(C)C(C)C | -129 | 57.9 | 2.37 |  |  |  | 
CCCC#N | -112 | 118 | 1.29 |  | 3.12 | -4.28 | 
CC(C)(O)CCl | -20 | 128 |  |  |  |  | 
C/C=C/C=C/C=O |  | 174 |  |  |  | -5.01 | 
COc1cc(Cl)c(OC)cc1Cl | 134 | 268 | -2.52 |  |  |  | 3.1

Same assay, conditions: fish

SMILES | log10 BCF | log10 biotransformation half-life (days)
CCN(CC)c1ccccc1 | 2.01 | 
Nc1cc(Cl)c(Cl)c(Cl)c1 | 2.36 | 0.28
Oc1c(Cl)cc(Cl)c(Cl)c1Cl | 2.3 | 
Oc1ccc(-c2ccccc2)cc1 | 1.59 | -0.81
CC(=O)CC(=O)Nc1ccc(-c2ccc(NC(=O)CC(C)=O)c(C)c2)cc1C | 0.2 | -1.5
O=C(O)c1cccc([N+](=O)[O-])c1 | 0.85 | 
ClC(Cl)=C(Cl)Cl | 1.72 | -0.88
Clc1cc(-c2c(Cl)c(Cl)c(Cl)c(Cl)c2Cl)c(Cl)c(Cl)c1Cl |  | 2.68
Clc1cc2c(c(Cl)c1Cl)Oc1cc(Cl)c(Cl)c(Cl)c1O2 | 3.93 | 1.21
COP(=S)(OC)Oc1ccc([N+](=O)[O-])c(C)c1 | 1.95 | 0.03
